{"source": "patent US10093883B2", "about": "“Glucose gemini surfactant compound and method for preparation thereof” (ZHEJIANG UNIVERSITY, priority 2014, dated 2018)", "test": "Surface activity test: critical micelle concentration (cmc), platinum plate method", "type": "physicochemical", "conditions": "20° C.", "procedure": "The critical micelle concentration (cmc) of the target product was determined as 0.0068 mmol/L at 20° C., which was 3 times […] than that of the compound dodecyl glucose gemini surfactant (cmc=0.02 mmol/L) and is suitable for separation and extraction of detergents and biofilm proteins."}
{"smiles": "CCCCCCCCCCCCOCC(COCCOCC(COCCCCCCCCCCCC)O[C@@H]1OC(CO)[C@@H](O)C(O)C1O)O[C@@H]1OC(CO)[C@@H](O)C(O)C1O", "note": "(some centres unmarked) [dodecyl glucose gemini surfactant]", "values": [{"measurement": "critical micelle concentration (cmc)", "value": 0.02, "unit": "mmol/L"}]}
{"smiles": "CCCCCCCCCCCCCCOCC(COCCOCC(COCCCCCCCCCCCCCC)O[C@@H]1OC(CO)[C@@H](O)C(O)C1O)O[C@@H]1OC(CO)[C@@H](O)C(O)C1O", "note": "(some centres unmarked) [tetradecyl glucose gemini surfactant]", "values": [{"measurement": "critical micelle concentration (cmc)", "value": 0.053, "unit": "mmol/L"}]}
